{"source": "ChEMBL document CHEMBL5505982", "about": "“Design, synthesis, biological evaluation and in silico studies of novel quinoline derivatives as potential radioprotective molecules targeting the TLR2 and p53 pathways” (Eur J Med Chem, 2024)", "key": {"[1]": {"system": "Mus musculus", "assay": "Radioprotective activity in C57BL/6J mouse model assessed as upregulation of IL-6 expression at 300 mg/kg, ip measured after 2 hrs of 7.5 Gy radiation by ELISA analysis", "assay_type": "functional, organism-based"}, "[2]": {"system": "Mus musculus", "assay": "Radioprotective activity in irradiated C57BL/6J mouse model assessed as increase in RBC count at 300 mg/kg, ip preincubated with compound for 15 to 1440 mins followed by irradiation with 6.5 Gy and measured after 10 to 13 days of radiation", "assay_type": "functional, organism-based", "details": "Erythrocyte"}, "[3]": {"system": "Mus musculus", "assay": "Radioprotective activity in C57BL/6J mouse assessed as survival rate at 30 mg/kg, ip preincubated with compound for 15 to 1440 mins followed by irradiation and measured at day 30", "assay_type": "functional", "details": "light or radiation study, time 15-44640 min"}, "[4]": {"system": "AHH-1", "assay": "Induction of apoptosis in human AHH-1 cells assessed as viable cells preincubated with compound for 24 hrs followed by irradiation with 4 Gy and measured after 24 hrs of radiation by Annexin V-FITC/PI staining based flow cytometry analysis (reference value: 66.9 %)", "assay_type": "functional", "details": "time 48 hrs"}, "[5]": {"system": "AHH-1", "assay": "Induction of apoptosis in human AHH-1 cells assessed as late apoptotic cells preincubated with compound for 24 hrs followed by irradiation with 6 Gy and measured after 24 hrs of radiation by Annexin V-FITC/PI staining based flow cytometry analysis (reference value: 29.8%)", "assay_type": "functional", "details": "time 48 hrs"}, "[6]": {"system": "AHH-1", "assay": "Induction of apoptosis in human AHH-1 cells assessed as necrotic cells preincubated with compound for 24 hrs followed by irradiation with 6 Gy and measured after 24 hrs of radiation by Annexin V-FITC/PI staining based flow cytometry analysis (reference value: 3.71%)", "assay_type": "functional", "details": "time 48 hrs"}, "[7]": {"system": "Mus musculus", "assay": "Radioprotective activity in irradiated C57BL/6J mouse model assessed as increase in platelets count at 300 mg/kg, ip preincubated with compound for 15 to 1440 mins followed by irradiation with 6.5 Gy and measured after 14 days of radiation relative to Ex-rad/control", "assay_type": "functional, organism-based", "details": "time 15-21600 min"}, "[8]": {"system": "AHH-1", "assay": "Induction of apoptosis in human AHH-1 cells assessed as viable cells preincubated with compound for 24 hrs followed by irradiation with 6 Gy and measured after 24 hrs of radiation by Annexin V-FITC/PI staining based flow cytometry analysis (reference value: 52.3%)", "assay_type": "functional", "details": "time 48 hrs"}, "[9]": {"system": "Mus musculus", "assay": "Radioprotective activity in C57BL/6J mouse model assessed as upregulation of IL-12 expression at 300 mg/kg, ip measured after 2 hrs of 7.5 Gy radiation by ELISA analysis", "assay_type": "functional, organism-based"}, "[10]": {"system": "AHH-1", "assay": "Radioprotective activity against radiation-induced DNA damage in human AHH-1 cells assessed as reduction in gamma-H2AX foci in nucleus preincubated with compound for 24 hrs followed by irradiation with 1.175 Gy/min and measured after 2 hrs of radiation by fluorescence microscopic analysis", "assay_type": "functional, cell-based", "details": "time 26.0 hrs"}, "[11]": {"target": "T1, Toll-like receptor 2 (Homo sapiens, UniProt O60603)", "T1 sequence (O60603 whole entry)": "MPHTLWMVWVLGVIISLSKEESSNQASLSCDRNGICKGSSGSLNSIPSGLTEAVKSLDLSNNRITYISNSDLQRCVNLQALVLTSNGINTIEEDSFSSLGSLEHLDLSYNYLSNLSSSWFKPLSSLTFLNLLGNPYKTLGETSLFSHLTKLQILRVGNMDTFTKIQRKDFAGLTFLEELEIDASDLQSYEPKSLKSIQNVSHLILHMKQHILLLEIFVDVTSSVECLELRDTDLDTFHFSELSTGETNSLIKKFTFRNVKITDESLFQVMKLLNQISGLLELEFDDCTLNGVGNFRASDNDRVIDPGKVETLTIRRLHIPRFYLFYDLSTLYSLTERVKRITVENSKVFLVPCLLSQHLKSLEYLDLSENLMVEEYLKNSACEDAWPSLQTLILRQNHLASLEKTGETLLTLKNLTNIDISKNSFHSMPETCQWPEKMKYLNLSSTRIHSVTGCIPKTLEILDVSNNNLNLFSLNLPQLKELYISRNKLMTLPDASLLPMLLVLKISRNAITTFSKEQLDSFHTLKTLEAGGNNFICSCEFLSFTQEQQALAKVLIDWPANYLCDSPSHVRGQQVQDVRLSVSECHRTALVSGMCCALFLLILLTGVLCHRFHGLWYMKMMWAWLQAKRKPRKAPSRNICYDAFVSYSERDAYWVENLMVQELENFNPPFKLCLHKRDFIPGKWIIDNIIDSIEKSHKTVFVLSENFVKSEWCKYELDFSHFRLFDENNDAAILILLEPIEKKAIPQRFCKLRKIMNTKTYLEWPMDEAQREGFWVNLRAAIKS", "assay": "Agonist activity at TLR2 in human HUVEC cells assessed as increase in p65 level pretreated with compound for 24 hrs in presence of ionizing irradiation by Western blotting analysis", "assay_type": "cell-based", "details": "filed as agonist"}, "[12]": {"system": "Mus musculus", "assay": "Radioprotective activity in C57BL/6J mouse model assessed as upregulation of G-CSF expression at 300 mg/kg, ip measured after 2 hrs of 7.5 Gy radiation by ELISA analysis", "assay_type": "functional, organism-based"}, "[13]": {"target": "T1, Toll-like receptor 2", "assay": "Agonist activity at TLR2 in human HUVEC cells assessed as increase in MyD88 level pretreated with compound for 24 hrs in presence of ionizing irradiation by Western blotting analysis", "assay_type": "cell-based", "details": "filed as agonist"}}, "note": "Active and inactive are the calls of the source. The rule behind the calls is not given here."}
{"smiles": "[O-][S+](Cc1ccc(F)cc1)c1ccc2cc(Br)ccc2n1", "note": "(stereo not drawn)", "values": [{"measurement": "Activity", "setting": "[1]", "value": "Active"}, {"measurement": "Activity", "setting": "[2]", "value": "Active"}, {"measurement": "survival at 30 mg/kg", "setting": "[3]", "value": 80, "unit": "%"}, {"measurement": "Activity", "setting": "[4]", "value": 72.4, "unit": "%"}, {"measurement": "Activity", "setting": "[5]", "value": 16.2, "unit": "%"}, {"measurement": "Activity", "setting": "[6]", "value": 2.55, "unit": "%"}, {"measurement": "Activity", "setting": "[7]", "value": "Active"}, {"measurement": "Activity", "setting": "[8]", "value": 67.6, "unit": "%"}, {"measurement": "Activity", "setting": "[9]", "value": "Active"}, {"measurement": "Activity", "setting": "[10]", "value": "Active"}, {"measurement": "Activity", "setting": "[11]", "value": "Active"}, {"measurement": "Activity", "setting": "[12]", "value": "Active"}, {"measurement": "Activity", "setting": "[13]", "value": "Active"}]}
